Experimental data published in patent US11414379B2, “SPAK kinase inhibitors as neuroprotective agents” (United States Government as represented by the Department …, priority 2018, dated 2022).

What was measured:
[1] = biological target: T1, GST-[T233E]SPAK kinase (Homo sapiens, UniProt Q9UEW8, T231E); test: SPAK kinase assay employing CATCHtide; format: biochemical; details: SPAK activity at different ATP concentrations
T1 construct: made in house; host or cells: E. coli
Method: SPAK kinase assays employing CATCHtide (cation chloride co-transporter peptide substrate). Peptide kinase assays, performed in triplicate, were set up in a total volume of 50 μl containing 0.5 μg GST-[T233E]SPAK kinase (˜5 nM at ˜10% purity) in 50 mM Tris/HCl, pH 7.5, 0.1 mM EGTA, 10 mM MgCl2, 300 μM CATCHtide ([…]; SEQ ID NO:1), […] [γ-32P]ATP (˜500 cpm/pmol) and the indicated concentrations of inhibitor dissolved in DMSO. After incubation for 30 min at 30° C., reactions were terminated by spotting 40 μl of the reaction mix onto P81 phosphocellulose paper and immersion in 50 mM phosphoric acid. The papers were washed extensively and the incorporation of [γ-^32P]ATP into CATCHtide was quantified by Cerenkov counting. IC^50 values were calculated with GraphPad Prism using non-linear regression analysis.
Referring to FIG. 7A, the activation of SPAK kinase by MO25α is shown. SPAK was assayed in the absence or presence of five-fold molar excess of wild-type MO25α.
Referring to FIG. 7B, kinetic data was determined for ZT-1a in the absence or presence of five-fold molar excess of wild-type MO25α. Data points are the average of three determinations, and the error bars are +/−SEM.

[2] = system: KCC2 pThr1007; test: Phosphorylation immunoblot in KCC2-transfected HEK293 cells; format: cell-based, human; parameters: key: “—” showed no inhibition of phosphorylation of SPAK/NKCC1/KC22; details: concentration inhibiting phosphorylation; for KCC2 pThr1007 (μM) hypo: hypotonic low Cl- conditions; for KCC2 pThr1007 (μM) Iso: isotonic conditions
Method: (§1) HEK293 (human embryonic kidney 293) cells were cultured on 10-cm-diameter dishes in DMEM supplemented with 10% (v/v) foetal bovine serum, 2 mM L-glutamine, 100 U/ml penicillin and 0.1 mg/ml streptomycin. HEK293 cells were transfected with a mixture of 20 μl of 1 mg/ml polyethylenimine (Polysciences) and 5-10 μg of plasmid DNA as described previously (Durocher et al., 2002). 36 hours post-transfection cells were stimulated with either control isotonic or hypotonic medium for a period of 30 minutes. Cells were lysed in 0.3 mL of ice-cold lysis buffer/dish, lysates were clarified by centrifugation at 4° C. for 15 minutes at 26,000 g and the supernatant aliquots were frozen in liquid nitrogen and stored at −20° C. Protein concentrations were determined using the Bradford method. Cells were treated with the indicated concentrations of the SPAK/OSR1 inhibitors. […] Hypotonic low chloride buffer was 67.5 mM sodium-gluconate, 2.5 mM potassium-gluconate, 0.25 mM CaCl2), 0.25 mM MgCl2, 0.5 mM Na2HPO4, 0.5 mM Na2SO4 and 7.5 mM HEPES (pH 7.5).
(§2) The membranes were incubated for 30 min with TBST (Tris-buffered saline, 0.05% Tween-20) containing 5% (w/v) skim milk. The blots were then washed six times with TBST and incubated for 1 hour at room temperature with secondary HRP-conjugated antibodies diluted 5000-fold in 5% (w/v) skim milk in TBST. After repeating the washing steps, signals were detected with enhanced chemiluminescence reagent. Immunoblots were developed using a film automatic processor (SRX-101; Konica Minolta Medical) and films were scanned at 600 dpi (PowerLook 1000; UMAX). Figures were generated using Photoshop/Illustrator (Adobe). The densities of bands were measured with ImageJ. For phospho-antibody immunoprecipitation, KCC isoforms were immunoprecipitated from indicated cell extracts. 2 mg of the indicated clarified cell extract were mixed with 15 μg of the indicated phospho-specific KCC antibody conjugated to 15 μl of protein-G-Sepharose, in the added presence of […] of the dephosphorylated form of the phosphopeptide antigen, and incubated 2 hours at 4° C. with gentle shaking. Immunoprecipitates were washed three times with 1 mL of lysis buffer containing 0.15 M NaCl and twice with 1 ml of buffer A. Bound proteins were eluted with 1×LDS sample buffer.
(§3) HEK293 cells were transfected with a DNA construct encoding wild type N-terminally FLAG-tagged KCC2. 36 hrs post-transfection, cells were exposed 30 min to either control isotonic or hypotonic low [C1^−] conditions, then treated in the same conditions for an additional 30 min with the indicated inhibitors at the concentrations noted. Cell lysates were subjected to SDS-PAGE and Western blotting with the indicated antibodies. See FIG. 3 for Western blot quantitation.
(§4) Referring to FIG. 2, concentration-response experiments testing effects of Closantel analogs on phosphorylation of KCC2 Thr906/Thr1007 are shown. HEK293 cells were transfected with DNA construct encoding wild type N-terminally FLAG-tagged KCC2. 36 h post-transfection, cells were exposed 30 min to either control isotonic conditions or hypotonic low Cl^− conditions, then treated in the same conditions with the specified inhibitors (1b, 1c, 1f, 1d, 1h, and 1g, respectively) at the indicated concentrations for an additional 30 min. Lysates were subjected to SDS-PAGE and Western blotting with the indicated antibodies.
(§5) Referring to FIG. 3, HEK293 cells were transfected with the DNA construct encoding wild type N-terminally FLAG-tagged KCC2. 36 h post-transfection, cells were exposed 30 min to either control isotonic or hypotonic low Cl^− conditions, then treated in the same conditions with the specified inhibitors at the indicated concen-trations for an additional 30 min. Lysates were subjected to SDS-PAGE and Western blotting with the indicated antibodies. Closantel, STOCK1S-14279 and STOCK1S-50699 were used as reference compounds.

[3] = system: KCC2 pThr906; test: as above; format: cell-based, human; parameters: key: “—” showed no inhibition of phosphorylation of SPAK/NKCC1/KC22; details: concentration inhibiting phosphorylation; for KCC2 pThr906 (μM) hypo: hypotonic low Cl- conditions; for KCC2 pThr906 (μM) Iso: isotonic conditions
Method: as §1, §2, §3, §4, §5

[4] = system: SPAK pSer373; test: as above; format: cell-based, human; parameters: key: “—” showed no inhibition of phosphorylation of SPAK/NKCC1/KC22; details: concentration inhibiting phosphorylation; for SPAK pSer373 (μM) hypo: hypotonic low Cl- conditions; for SPAK pSer373 (μM) Iso: isotonic conditions
Method: as §1, §2, §3, §4, §5

[5] = system: NKCC1 pThr203; test: as above; format: cell-based, human; parameters: key to NKCC1 pThr203 (μM) Iso / NKCC1 pThr203 (μM) hypo: “—” showed no inhibition of phosphorylation of SPAK/NKCC1/KC22; details: concentration inhibiting phosphorylation; for NKCC1 pThr203 (μM) hypo: hypotonic low Cl- conditions; for NKCC1 pThr203 (μM) Iso: isotonic conditions
Method: as §1, §2, §3, §4, §5

Row | Compound | change of IC50 values with increasing ATP concentrations [1] | KCC2 pThr1007 (μM) hypo [2] | KCC2 pThr1007 (μM) Iso [2] | KCC2 pThr906 (μM) hypo [3] | KCC2 pThr906 (μM) Iso [3] | SPAK pSer373 (μM) hypo [4] | SPAK pSer373 (μM) Iso [4] | NKCC1 pThr203 (μM) hypo [5] | NKCC1 pThr203 (μM) Iso [5]
1 | CN[C@@H]1C[C@H]2O[C@@](C)([C@@H]1OC)n1c3ccccc3c3c4c(c5c6ccccc6n2c5c31)C(=O)NC4 [staurosporine, reference compound] | increased in a dose-proportional manner |  |  |  |  |  |  |  | 
2 | Cc1cc(C(C#N)c2ccc(Cl)cc2)c(Cl)cc1NC(=O)c1ccccc1S (stereo not drawn) [Compound 1c, N-(5-chloro-4-((4-chlorophenyl)(cyano)methyl)-2-methylphenyl)-2-mercapto-benzamide] |  | 3, 3 μM | 3, 3 μM | 10, 10 μM | 10, 10 μM | 3, 3 μM | 3, 3 μM | 3 μM | 1 μM
3 | Cc1cc(C(C#N)c2ccc(Cl)cc2)c(Cl)cc1NC(=O)c1cccc(O)c1O (stereo not drawn) [Compound 1i, N-(5-chloro-4-((4-chlorophenyl)(cyano)methyl)-2-methylphenyl)-2,3-dihydroxy-benzamide] |  | — | — | — | — | — | — | — | —
4 | Cc1cc(C(C#N)c2ccc(Cl)cc2)c(Cl)cc1NC(=O)c1cccc(F)c1O (stereo not drawn) [Compound 1h, N-(5-chloro-4-((4-chlorophenyl)(cyano)methyl)-2-methylphenyl)-3-fluoro-2-hydroxy-benzamide] |  | 3, 3 μM | 3, 3 μM | 10, 10 μM | 10, 10 μM | 3, 3 μM | 3, 3 μM | 3 μM | 1 μM
5 | Cc1cc(C(C#N)c2ccc(Cl)cc2)c(Cl)cc1NC(=O)c1ccccc1N (stereo not drawn) [Compound 1d, 2-amino-n-(5-chloro-4-((4-chlorophenyl)(cyano)methyl)-2-methylphenyl)-benzamide] |  | 3, 3 μM | 3, 3 μM | 10, 10 μM | 10, 10 μM | 3, 3 μM | 3, 3 μM | 3 μM | 1 μM
